From PubChem BioAssay AID1996 come the findings set out here.

Converted amounts (≈) assume the structure as drawn.

For the series the following is noted: buffer; pH 7.4; 200.0 µM.
In turn, `Cc1ccc(S(=O)(=O)NC(=O)Nc2ccc(OC(F)F)cc2)cc1` returned a kinetic solubility of 52.3 µg/mL (≈ 147 µM).
The same measure for `COc1ccc(C2CC(C)(c3ccc(OC)cc3)Nc3ccccc3N2)cc1` (configuration not stated): below 0.4 µg/mL; for `O=C(COC(=O)c1cc2ccccc2cc1O)Nc1ccccc1F`: 6.3 µg/mL (≈ 18.6 µM); for `COc1ccc(C(OC(=O)c2ccco2)C(=O)NC(C)(C)C)cc1` (configuration not stated): above 49.7 µg/mL.
In turn, `CC(=O)N1CCN(c2ccc(S(C)(=O)=O)cc2[N+](=O)[O-])CC1` came in with a solubility (kinetic) above 49.1 µg/mL.
The figure for `Cc1cccc(-c2nc(N)nc(N)n2)c1` is 28 µg/mL (≈ 139 µM).
Compound `Cc1ccc(NC(=O)c2ccccc2NC(=O)c2cccs2)cc1` registered a kinetic solubility below 0.4 µg/mL.
The same measure for `COc1ccc(/C=C/C(=O)OCC(=O)NC2CCCCCCC2)cc1`: 7.6 µg/mL (≈ 22 µM); for `C=CCN1C(=O)c2ccccc2C1(O)Cc1ccccc1` (configuration not stated): 36.6 µg/mL (≈ 131 µM); for `O=C(Nc1ccccc1)N1CCc2c([nH]c3ccccc23)C1C(F)(F)F` (configuration not stated): 1.8 µg/mL (≈ 5.01 µM).
For the compound `COc1cccc(C(=O)NCCSCc2ccccc2Cl)c1`, the kinetic solubility amounted to 16 µg/mL (≈ 47.6 µM).
`O=C(c1cccs1)N1CCN(c2ncc(Br)cn2)CC1` displayed a kinetic solubility of 9.5 µg/mL (≈ 26.9 µM).
In turn, `COc1ccc2[nH]cc(CCNC(=S)NCCc3ccccc3)c2c1` yielded a solubility (kinetic) of 26.3 µg/mL (≈ 74.4 µM).
As to `Cc1cc(=O)[nH]c(SCC(=O)NC2CCCCCC2)n1`, the solubility (kinetic) is above 44.3 µg/mL.
Regarding `CCC(C)c1ccc(NC(=S)NC(C)C2CCCO2)cc1` (configuration not stated), the solubility (kinetic) was determined as 31.2 µg/mL (≈ 102 µM).
The figure for `O=C(C(Cl)c1ccccc1)N1CCCC1` (configuration not stated) is 33.1 µg/mL (≈ 148 µM); for `COc1ccc(CCNS(=O)(=O)c2ccc(Cl)cc2)cc1OC` it is above 53.4 µg/mL; for `O=C(N1CCCC1)N1CCN(S(=O)(=O)c2ccccc2)CC1` it is 34.4 µg/mL (≈ 106 µM).
Regarding `Cn1c(CC(=O)NNC(=O)c2cccnc2)nc2ccccc21`, the kinetic solubility was above 46.4 µg/mL.
The same measure for `CCc1ccc(N2C(=O)C3CCCN3C2=S)cc1` (configuration not stated): 29.4 µg/mL (≈ 113 µM); for `CCCC(=O)Nc1ccc2c(c1)Cc1ccccc1-2`: 1.5 µg/mL (≈ 5.97 µM); for `CC(SCc1ccccc1)C(=O)Nc1ccc(F)cc1` (configuration not stated): above 43.4 µg/mL.
Compound `O=C(O)c1cccc(N(CCO)CCO)c1` returned a kinetic solubility above 33.8 µg/mL.
Compound `O=C(/C=C/N1CCN(Cc2ccccc2)CC1)C(F)(F)F` had a solubility (kinetic) above 44.7 µg/mL.
As to `COC(=O)c1nc(N)sc1C(C)C`, the kinetic solubility is above 30 µg/mL.
`Cc1ccc(/C=C2\SC(N3CCCCC3)=NC2=O)cc1` registered a solubility (kinetic) of 5.7 µg/mL (≈ 19.9 µM).
For the compound `Cc1ccc(NC(=O)CCCc2ccccc2)c([N+](=O)[O-])c1`, the solubility (kinetic) worked out at 4.5 µg/mL (≈ 15.1 µM).
`O=C(NCc1ccccc1F)C1CCCN(c2cnccn2)C1` (configuration not stated) yielded a kinetic solubility of 44.7 µg/mL (≈ 142 µM).
Consider `O=C(Nc1cccc2cccnc12)c1cc(F)c(F)cc1Cl`, for which the kinetic solubility is below 0.3 µg/mL.
The figure for `Cc1ccc(S(=O)(=O)c2c[nH]c3ccc(C)cc3c2=O)cc1` is below 0.7 µg/mL.
Turning to `CCNC1CCS(=O)(=O)C1` (configuration not stated), the solubility (kinetic) is above 24.5 µg/mL.
`Cc1ccc(C(=O)N/C(=C/c2ccco2)C(=O)NCc2ccco2)cc1`: the kinetic solubility is above 52.6 µg/mL.
Take `CN(C(=O)c1ccc2c(c1)OCO2)C1CCS(=O)(=O)C1` (configuration not stated): the kinetic solubility is above 44.6 µg/mL.
`Cc1sc2ncn(-c3ccccc3)c(=O)c2c1C` registered a solubility (kinetic) of 5.6 µg/mL (≈ 21.8 µM).
Compound `Cc1noc(C)c1C(=O)NCCc1c(C)[nH]c2ccccc12` displayed a solubility (kinetic) of 41.5 µg/mL (≈ 140 µM).
The figure for `CCOc1ccc(C(=O)OCC(=O)Nc2cccnc2Cl)cc1OCC` is 19 µg/mL (≈ 50.2 µM).
`COc1ccccc1-c1noc(CCCC(=O)NC2CCCCC2)n1`: the kinetic solubility was 48.5 µg/mL (≈ 141 µM).
As to `O=C(/C=C/c1ccccc1)Oc1cccc2cccnc12`, the kinetic solubility was 20.2 µg/mL (≈ 73.4 µM).
The compound `CCOc1ccc(C(=O)OCC(=O)NC2CCCC2)cc1OCC` showed a kinetic solubility of 17.7 µg/mL (≈ 52.8 µM).
Take `O=C(O)CCc1nc2ccccc2c(=O)[nH]1`: the kinetic solubility is above 32.7 µg/mL.
The figure for `CCOC(=O)N1CCN(C(=O)CSc2nc3nc(C)cc(C)n3n2)CC1` is above 56.8 µg/mL; for `Cc1ccc(Cl)cc1NS(=O)(=O)c1cn(C)nc1C` it is above 45 µg/mL; for `Cc1cc(Br)c(NC(=O)COC(=O)C2CCCCC2)c(Br)c1` it is 10.1 µg/mL (≈ 23.3 µM).
The same measure for `O=S(=O)(Nc1ccc(Br)cn1)c1cccs1`: 42.4 µg/mL (≈ 133 µM); for `O=C(/C=C/c1cccc([N+](=O)[O-])c1)OCC1CCCO1` (configuration not stated): 34.4 µg/mL (≈ 124 µM).
Compound `COc1cc([N+](=O)[O-])cc2sc(NC(=O)C3CC3)nc12` returned a kinetic solubility of 0.6 µg/mL (≈ 2.05 µM).
The figure for `O=C(CSc1nc2ccccc2c(=O)[nH]1)Nc1ccc([N+](=O)[O-])cc1` is 5 µg/mL (≈ 14 µM); for `Cc1cccc(OCC(=O)O/N=C(\N)c2ccncc2)c1` it is above 42.8 µg/mL; for `C=CCNC(=S)N1CCN(C2CCCCC2)CC1` it is above 40.1 µg/mL.
Regarding `O=C(COC(=O)CSc1ccc([N+](=O)[O-])cc1)NCC1CCCO1` (configuration not stated), the solubility (kinetic) is above 53.2 µg/mL.
As to `COc1ccc(C(CNC(=O)c2cc(S(=O)(=O)N3CCN(c4ccccc4)CC3)ccc2Cl)N(C)C)cc1` (configuration not stated), the solubility (kinetic) turned out to be 49.4 µg/mL (≈ 88.7 µM).
The same measure for `COc1ccc(C(C)=O)cc1Cn1c(=O)cc(C)[nH]c1=O`: above 43.2 µg/mL.

Broadly, the kinetic solubility is solubility judged after dilution from a stock solution rather than from solid.
